Test results published in US7863478B2, “UV filters” (Merck Patent GmbH, priority 2004, dated 2011).

Experiments:
[1] = UV absorption (UV-VIS spectra in 2-propanol, 1 mg/100 ml); assay type: physicochemical; set-up: UV absorbance at λmax (1 mg/100 ml): unit not given here; conditions: 1 mg/100 ml; for UV absorbance at λmax (1 mg/100 ml): value in brackets after λmax in the synthesis example
Procedure: FIG. 1: UV absorption spectra of 1-hydroxy-3-[(E)-3-(4-methoxyphenyl)-2-propenoyloxy]-2-oxopropane (Example 1a) and 1-hydroxy-3-(2-cyano-3,3-diphenylacryloyloxy)-2-oxopropane (Example 1b) (in each case measured in 2-propanol at a concentration of 1 mg/100 ml)
FIG. 2: UV absorption spectra of 3-[4-(3-hydroxy-2-oxopropoxymethyl)benzylidene]-4,7,7-trimethylbicyclo[2.2.1]heptan-2-one (Example 9), N-(2,3-dihydroxypropyl)-(E)-3-(4-methoxyphenyl)acrylamide (Example 10a) and N-(2,3-dihydroxypropyl)-N-methyl-(E)-3-(4-methoxyphenyl)acrylamide (Example 10b) (in each case measured in 2-propanol at a concentration of 1 mg/100 ml).

| Structure (SMILES) | UV-VIS λmax [1] [nm] | UV absorbance at λmax (1 mg/100 ml) [1] | melting point |
| --- | --- | --- | --- |
| COc1ccc(/C=C/C(=O)OCC(=O)COC(=O)/C=C/c2ccc(OC)cc2)cc1 [Example 23, 1,3-Bis-[(E)-3-(4-methoxyphenyl)-2-propenoyloxy]-2-oxopropane] | 307.0 | 1.140 | 146 to 148 °C |
| CCCCC(CC)COc1ccc(/C=C/C(=O)OCC(=O)COC(=O)/C=C/c2ccc(OCC(CC)CCCC)cc2)cc1 (stereo not drawn) [Example 23a] | 301.0 | 0.947 | 77 to 79 °C |
| COc1ccc(/C=C/C(=O)NCC(O)CO)cc1 (stereo not drawn) [Example 10a, N-(2,3-dihydroxypropyl)-(E)-3-(4-methoxyphenyl)acrylamide] | 298.0 | 0.940 | 104 to 106 °C |
| CCCCC(CC)COc1ccc(/C=C/C(=O)NCC(=O)CO)cc1 (stereo not drawn) [Example 21, N-(3-hydroxy-2-oxopropyl)-(E)-3-[4-(2-ethylhexyloxyphenyl)]acrylamide] | 307.5 | 0.706 | 155 to 157 °C |
| COc1ccc(/C=C/C(=O)NCC(=O)CO[Si](C)(C)C(C)(C)C)cc1 [Example 17, N-[3-(tert-butyldimethylsilyloxy)-2-oxopropyl]-(E)-3-(4-methoxyphenyl)acrylamide] | 300.0 | 0.843 | 151 to 152 °C |
| COc1ccc(/C=C/C(=O)OCC(=O)CO)cc1 [Example 1a, 1-Hydroxy-3-[(E)-3-(4-methoxyphenyl)-2-propenoyloxy]-2-oxopropane] | 301.0 | 0.947 | 172 to 174 °C |
| CN(C)c1ccc(C(=O)NCC(O)CO[Si](C)(C)C(C)(C)C)cc1 (stereo not drawn) [Example 15, N-[3-(tert-butyldimethylsilyloxy)-2-hydroxypropyl]-4-dimethylaminobenzamide] | 301.0 | 0.64 | 127 to 128 °C |
| N#CC(C(=O)OCC(=O)COC(=O)C(C#N)=C(c1ccccc1)c1ccccc1)=C(c1ccccc1)c1ccccc1 [Example 23b, 1,3-Bis-(2-cyano-3,3-diphenylacryloyloxy)-2-oxopropane] | 304.0 | 0.031 | 209 °C |
| N#CC(C(=O)OCC(=O)CO)=C(c1ccccc1)c1ccccc1 [Example 1b, 1-Hydroxy-3-(2-cyano-3,3-diphenylacryloyloxy)-2-oxopropane] | 303.0 | 0.375 | 204 °C (dec.) |
